This experiment has as its target T1, protein kinase CK2 (CK2α) (Homo sapiens, UniProt P68400).
T1 construct: gene CSNK2A1
As to the kind of experiment: radioactive kinase assay with recombinant CK2 and synthetic peptide, varied ATP, Michaelis-Menten re-plots. The experiment is classed as biochemical.

Molecules are shown by their SMILES.

T1 sequence (P68400 1-335): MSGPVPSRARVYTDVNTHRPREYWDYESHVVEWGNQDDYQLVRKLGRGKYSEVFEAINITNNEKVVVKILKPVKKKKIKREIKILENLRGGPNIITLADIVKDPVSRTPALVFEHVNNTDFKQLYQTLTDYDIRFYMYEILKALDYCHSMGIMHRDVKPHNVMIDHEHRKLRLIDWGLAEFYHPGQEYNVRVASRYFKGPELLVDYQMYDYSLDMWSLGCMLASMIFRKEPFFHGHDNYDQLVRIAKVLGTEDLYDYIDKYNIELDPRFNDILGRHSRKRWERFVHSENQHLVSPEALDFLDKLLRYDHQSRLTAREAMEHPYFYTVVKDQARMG
T1 sequence (P67870 2-215 partner): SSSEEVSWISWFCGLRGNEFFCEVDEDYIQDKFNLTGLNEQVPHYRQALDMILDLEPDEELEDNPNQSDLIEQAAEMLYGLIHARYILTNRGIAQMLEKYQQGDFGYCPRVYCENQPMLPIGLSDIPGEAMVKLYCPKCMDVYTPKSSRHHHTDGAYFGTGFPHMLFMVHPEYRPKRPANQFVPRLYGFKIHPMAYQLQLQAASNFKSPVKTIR

On to `COc1ccc(/N=C/c2c(O)ccc3c2oc2cc(Cl)c(O)c(Cl)c23)cc1` [D11, 1,3-dichloro-6-[(E)-((4-methoxyphenyl)imino)methyl]dibenzo(b,d)furan-2,7-diol], for which the Ki (commonly a measure of affinity in units of concentration, obtained from inhibition or displacement) turned out to be 7.7 nM.

Source of the values: publication PMC5374409, “D11-Mediated Inhibition of Protein Kinase CK2 Impairs HIF-1α-Mediated Signaling in Human Glioblastoma Cells” (Pharmaceuticals, 2017).
